Common to all, as to experiment: Tumor cell killing, viable cell count by trypan blue exclusion
Assay type in all cases: cell-based

One assay concerns H157 tumor cell line. The settings on record: H157 cells, viable cells counted 96 hours after treatment. As to the method:
(§1) The effect of the amino-substituted sulfonanilides on normal fibroblasts and on tumor cells may be determined by the assay described by Latham et al., Oncogene 12:827–837 (1996). Normal diploid lung human fibroblasts (HFL-1) or tumor cells (e.g., prostate, colorectal, breast, glial, pancreatic, ovarian, lung or leukemic) are plated in 6-well dishes at a cell density of 1.0×10^5 cells per […]. The plated cells are treated 24 hours later with various concentrations of amino-substituted sulfonanilide dissolved in dimethyl sulfoxide (DMSO). The total number of viable cells is determined 96 hours later by trypsinizing the wells and counting the number of viable cells, as determined by trypan blue exclusion, using a hemacytometer. Normal HFL cells are treated with the same compounds under the same conditions of concentration and time. Biological data for compounds of the present invention is shown in Table 5 below in DU145, BT20, DLD1 and H157 tumor cell lines.

The next assay concerns DU145 tumor cell line. The following applies: DU145 cells, viable cells counted 96 hours after treatment. The procedure: as §1
The subject of another assay is BT20 tumor cell line. The following applies: BT20 cells, viable cells counted 96 hours after treatment. As to the method: as §1
A further assay deals with DLD1 tumor cell line. The settings on record: DLD1 cells, viable cells counted 96 hours after treatment. The procedure: as §1

The results in this text go back to US7161031B2, “Amino-substituted sulfonanilides and derivatives thereof for treating proliferative disorders” (Temple University - Of The Commonwealth System of Higher …, priority 2002, dated 2007).

As for `COc1cc(OC)c(/C=C/S(=O)(=O)Nc2ccc(OC)c(NC(=O)CO)c2)c(OC)c1` [Example 6, (E)-2,4,6-Trimethoxystyryl-N-[(3-hydroxyacetamido)-4-methoxy-phenyl]sulfonamide], the “tumor cell killing activity H157” value in the assay with H157 tumor cell line was “+ (A (+) in the table indicates that the compound showed tumor cell killing activity at a concentration of less than 20 micromolar)”. Moreover, the “tumor cell killing activity DU145” value with DU145 tumor cell line is “+ (A (+) in the table indicates that the compound showed tumor cell killing activity at a concentration of less than 20 micromolar)”. In addition, the “tumor cell killing activity BT20” value with BT20 tumor cell line is recorded as “+ (A (+) in the table indicates that the compound showed tumor cell killing activity at a concentration of less than 20 micromolar)”. Moreover, the “tumor cell killing activity DLD1” value in the assay on DLD1 tumor cell line was “+ (A (+) in the table indicates that the compound showed tumor cell killing activity at a concentration of less than 20 micromolar)”.
On to `COc1cc(OC)c(/C=C/S(=O)(=O)Nc2ccc(OC)c(NC(=O)COC(C)=O)c2)c(OC)c1` [Example 4, (E)-2,4,6-Trimethoxystyryl-N-[(3-acetoxyacetamido)-4-methoxy-phenyl]sulfonamide], for which the “tumor cell killing activity H157” value with H157 tumor cell line is “+ (A (+) in the table indicates that the compound showed tumor cell killing activity at a concentration of less than 20 micromolar)”. The “tumor cell killing activity DU145” value in the assay with DU145 tumor cell line is on record as “+ (A (+) in the table indicates that the compound showed tumor cell killing activity at a concentration of less than 20 micromolar)”. Further, the “tumor cell killing activity BT20” value in the assay on BT20 tumor cell line is recorded as “+ (A (+) in the table indicates that the compound showed tumor cell killing activity at a concentration of less than 20 micromolar)”. In addition, the “tumor cell killing activity DLD1” value in the assay with DLD1 tumor cell line was “+ (A (+) in the table indicates that the compound showed tumor cell killing activity at a concentration of less than 20 micromolar)”.
As for `COc1cc(OC)c(/C=C/S(=O)(=O)Nc2ccc(OC)c(NCC(=O)O)c2)c(OC)c1` [Example 5, (E)-2,4,6-Trimethoxystyryl-N-[(3-carboxymethylamino)-4-methoxyphenyl]sulfonamide], the “tumor cell killing activity H157” value in the assay on H157 tumor cell line was “+ (A (+) in the table indicates that the compound showed tumor cell killing activity at a concentration of less than 20 micromolar)”. Besides, the “tumor cell killing activity DU145” value in the assay on DU145 tumor cell line is “+ (A (+) in the table indicates that the compound showed tumor cell killing activity at a concentration of less than 20 micromolar)”. Also, the “tumor cell killing activity BT20” value in the assay on BT20 tumor cell line is recorded as “+ (A (+) in the table indicates that the compound showed tumor cell killing activity at a concentration of less than 20 micromolar)”. Moreover, in the assay with DLD1 tumor cell line, the “tumor cell killing activity DLD1” value is on record as “+ (A (+) in the table indicates that the compound showed tumor cell killing activity at a concentration of less than 20 micromolar)”.
`COc1cc(OC)c(/C=C/S(=O)(=O)Nc2ccc(OC)c(NCC(=O)N(C)C)c2)c(OC)c1` [Example 1, (E)-2,4,6-Trimethoxystyryl-N-[(3-N,N-dimethylacetamido)-4-methoxyphenyl]sulfonamide]: in the assay on H157 tumor cell line, the “tumor cell killing activity H157” value is reported as “+ (A (+) in the table indicates that the compound showed tumor cell killing activity at a concentration of less than 20 micromolar)”. The “tumor cell killing activity DU145” value in the assay with DU145 tumor cell line is “+ (A (+) in the table indicates that the compound showed tumor cell killing activity at a concentration of less than 20 micromolar)”. For the same molecule, the “tumor cell killing activity BT20” value with BT20 tumor cell line is “+ (A (+) in the table indicates that the compound showed tumor cell killing activity at a concentration of less than 20 micromolar)”. In the assay with DLD1 tumor cell line, the “tumor cell killing activity DLD1” value is recorded as “+ (A (+) in the table indicates that the compound showed tumor cell killing activity at a concentration of less than 20 micromolar)”.
“(E)-2,4,6-Trimethoxystyryl-N-[(3-amino)-4-methoxyphenyl]-sulfonamide-L-lysineamide hydrochloride [Example 3]”: the “tumor cell killing activity H157” value in the assay with H157 tumor cell line is given as “+ (A (+) in the table indicates that the compound showed tumor cell killing activity at a concentration of less than 20 micromolar)”. Also, the “tumor cell killing activity DU145” value in the assay with DU145 tumor cell line was “+ (A (+) in the table indicates that the compound showed tumor cell killing activity at a concentration of less than 20 micromolar)”. The “tumor cell killing activity BT20” value with BT20 tumor cell line is given as “+ (A (+) in the table indicates that the compound showed tumor cell killing activity at a concentration of less than 20 micromolar)”. For the same molecule, the “tumor cell killing activity DLD1” value with DLD1 tumor cell line is given as “+ (A (+) in the table indicates that the compound showed tumor cell killing activity at a concentration of less than 20 micromolar)”.
With `COc1cc(OC)c(/C=C/S(=O)(=O)Nc2ccc(OC)c(NC(=O)CCl)c2)c(OC)c1` [Example 7, (E)-2,4,6-Trimethoxystyryl-N-[(3-chloroacetamido)-4-methoxyphenyl]-sulfonamide], the “tumor cell killing activity H157” value in the assay on H157 tumor cell line is reported as “+ (A (+) in the table indicates that the compound showed tumor cell killing activity at a concentration of less than 20 micromolar)”. The “tumor cell killing activity DU145” value with DU145 tumor cell line is listed as “+ (A (+) in the table indicates that the compound showed tumor cell killing activity at a concentration of less than 20 micromolar)”. Also, the “tumor cell killing activity BT20” value with BT20 tumor cell line is “+ (A (+) in the table indicates that the compound showed tumor cell killing activity at a concentration of less than 20 micromolar)”. Moreover, in the assay with DLD1 tumor cell line, the “tumor cell killing activity DLD1” value is recorded as “+ (A (+) in the table indicates that the compound showed tumor cell killing activity at a concentration of less than 20 micromolar)”.
Take `COc1cc(OC)c(/C=C/S(=O)(=O)Nc2ccc(OC)c(NC(=O)CN3CCN(C)CC3)c2)c(OC)c1` [Example 8, (E)-2,4,6-Trimethoxystyryl-N-[3-(4-methylpiperazinyl)-acetamido-4-methoxyphenyl]sulfonamide]: the “tumor cell killing activity H157” value in the assay on H157 tumor cell line is reported as “+ (A (+) in the table indicates that the compound showed tumor cell killing activity at a concentration of less than 20 micromolar)”. The “tumor cell killing activity DU145” value in the assay with DU145 tumor cell line is recorded as “+ (A (+) in the table indicates that the compound showed tumor cell killing activity at a concentration of less than 20 micromolar)”. In addition, the “tumor cell killing activity BT20” value with BT20 tumor cell line is “+ (A (+) in the table indicates that the compound showed tumor cell killing activity at a concentration of less than 20 micromolar)”. The “tumor cell killing activity DLD1” value in the assay on DLD1 tumor cell line is “+ (A (+) in the table indicates that the compound showed tumor cell killing activity at a concentration of less than 20 micromolar)”.
For the molecule `COc1cc(OC)c(/C=C/S(=O)(=O)Nc2ccc(OC)c(NC(C)=O)c2)c(OC)c1` [Example 2, (E)-2,4,6-Trimethoxystyryl-N-[(3-acetamido)4-methoxyphenyl]-sulfonamide], in the assay on H157 tumor cell line, the “tumor cell killing activity H157” value is “+ (A (+) in the table indicates that the compound showed tumor cell killing activity at a concentration of less than 20 micromolar)”. In addition, in the assay on DU145 tumor cell line, the “tumor cell killing activity DU145” value is on record as “+ (A (+) in the table indicates that the compound showed tumor cell killing activity at a concentration of less than 20 micromolar)”. Also, the “tumor cell killing activity BT20” value with BT20 tumor cell line is “+ (A (+) in the table indicates that the compound showed tumor cell killing activity at a concentration of less than 20 micromolar)”. In the assay on DLD1 tumor cell line, the “tumor cell killing activity DLD1” value is “+ (A (+) in the table indicates that the compound showed tumor cell killing activity at a concentration of less than 20 micromolar)”.
